Results reported in article PMC10176470, “Engaging a Non-catalytic Cysteine Residue Drives Potent and Selective Inhibition of Caspase-6” (Journal of the American Chemical Society, 2023).

Columns and labels:
Assay type in all cases: cell-based
[1] = target: proteins of HEK293T cells transiently overexpressing caspase-6 (Homo sapiens, UniProt O14880); details: exp_ref Probe; protein MGST3 (O14880); analysis C6
[2] = target: proteins of HEK293T cells transiently overexpressing caspase-6 (Homo sapiens, UniProt O75533); details: exp_ref Probe; protein SF3B1 (O75533); analysis C6
[3] = target: proteins of HEK293T cells transiently overexpressing caspase-6 (Homo sapiens, UniProt P00492); details: Probe; protein HPRT1 P00492
[4] = target: proteins of HEK293T cells transiently overexpressing caspase-6 (Homo sapiens, UniProt P00558); details: exp_ref Probe; protein PGK1 (P00558); analysis C6
[5] = target: proteins of HEK293T cells transiently overexpressing caspase-6 (Homo sapiens, UniProt P04406); details: exp_ref Probe; protein GAPDH (P04406); analysis C6
[6] = target: proteins of HEK293T cells transiently overexpressing caspase-6 (Homo sapiens, UniProt P08238); details: exp_ref Probe; protein HSP90AB1 (P08238); analysis C6
[7] = target: proteins of HEK293T cells transiently overexpressing caspase-6 (Homo sapiens, UniProt P08865); details: exp_ref Probe; protein RPSA (P08865); analysis C6
[8] = target: proteins of HEK293T cells transiently overexpressing caspase-6 (Homo sapiens, UniProt P11021); details: protein HSPA5 (P11021)
[9] = target: proteins of HEK293T cells transiently overexpressing caspase-6 (Homo sapiens, UniProt P13645); details: Probe; protein KRT10 P13645
[10] = target: proteins of HEK293T cells transiently overexpressing caspase-6 (Homo sapiens, UniProt P27797); details: exp_ref Probe; protein CALR (P27797); analysis C6
[11] = target: proteins of HEK293T cells transiently overexpressing caspase-6 (Homo sapiens, UniProt P28838); details: exp_ref Probe; protein LAP3 (P28838); analysis C6
[12] = target: T1, proteins of HEK293T cells transiently overexpressing caspase-6 (Homo sapiens, UniProt P30048)
T1 sequence (P30048 62-256): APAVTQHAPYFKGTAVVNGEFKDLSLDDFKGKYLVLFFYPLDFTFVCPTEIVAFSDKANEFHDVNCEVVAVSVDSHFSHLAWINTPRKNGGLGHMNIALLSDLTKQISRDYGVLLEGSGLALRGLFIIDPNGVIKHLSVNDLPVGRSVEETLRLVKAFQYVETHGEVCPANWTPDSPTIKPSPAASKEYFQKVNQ

[13] = target: proteins of HEK293T cells transiently overexpressing caspase-6 (Homo sapiens, UniProt P49321); details: exp_ref Probe; protein NASP (P49321); analysis C6
[14] = target: proteins of HEK293T cells transiently overexpressing caspase-6 (Homo sapiens, UniProt P51991); details: exp_ref Probe; protein HNRNPA3 (P51991); analysis C6
[15] = target: proteins of HEK293T cells transiently overexpressing caspase-6 (Homo sapiens, UniProt P61313)
[16] = target: proteins of HEK293T cells transiently overexpressing caspase-6 (Homo sapiens, UniProt P84090); details: Probe; protein ERH P84090
[17] = target: proteins of HEK293T cells transiently overexpressing caspase-6 (Homo sapiens, UniProt Q13085)
[18] = target: proteins of HEK293T cells transiently overexpressing caspase-6 (Homo sapiens, UniProt Q13200); details: protein PSMD2 (Q13200)
[19] = target: proteins of HEK293T cells transiently overexpressing caspase-6 (Homo sapiens, UniProt Q13838); details: exp_ref Probe; protein DDX39B (Q13838); analysis C6
[20] = target: proteins of HEK293T cells transiently overexpressing caspase-6 (Homo sapiens, UniProt Q15365); details: protein PCBP1 (Q15365); exp_ref Probe; analysis C6
[21] = target: proteins of HEK293T cells transiently overexpressing caspase-6 (Homo sapiens, UniProt Q99873); details: exp_ref Probe; protein PRMT1 (Q99873); analysis C6
[22] = target: proteins of HEK293T cells transiently overexpressing caspase-6 (Homo sapiens, UniProt Q9NVX2); details: Probe; protein NLE1 Q9NVX2
[23] = target: proteins of HEK293T cells transiently overexpressing caspase-6 (Homo sapiens, UniProt Q9UJU6); details: Probe; protein DBNL Q9UJU6

Chain of proteins of HEK293T cells transiently overexpressing caspase-6 (Homo sapiens, UniProt Q13200) (Q13200 whole entry): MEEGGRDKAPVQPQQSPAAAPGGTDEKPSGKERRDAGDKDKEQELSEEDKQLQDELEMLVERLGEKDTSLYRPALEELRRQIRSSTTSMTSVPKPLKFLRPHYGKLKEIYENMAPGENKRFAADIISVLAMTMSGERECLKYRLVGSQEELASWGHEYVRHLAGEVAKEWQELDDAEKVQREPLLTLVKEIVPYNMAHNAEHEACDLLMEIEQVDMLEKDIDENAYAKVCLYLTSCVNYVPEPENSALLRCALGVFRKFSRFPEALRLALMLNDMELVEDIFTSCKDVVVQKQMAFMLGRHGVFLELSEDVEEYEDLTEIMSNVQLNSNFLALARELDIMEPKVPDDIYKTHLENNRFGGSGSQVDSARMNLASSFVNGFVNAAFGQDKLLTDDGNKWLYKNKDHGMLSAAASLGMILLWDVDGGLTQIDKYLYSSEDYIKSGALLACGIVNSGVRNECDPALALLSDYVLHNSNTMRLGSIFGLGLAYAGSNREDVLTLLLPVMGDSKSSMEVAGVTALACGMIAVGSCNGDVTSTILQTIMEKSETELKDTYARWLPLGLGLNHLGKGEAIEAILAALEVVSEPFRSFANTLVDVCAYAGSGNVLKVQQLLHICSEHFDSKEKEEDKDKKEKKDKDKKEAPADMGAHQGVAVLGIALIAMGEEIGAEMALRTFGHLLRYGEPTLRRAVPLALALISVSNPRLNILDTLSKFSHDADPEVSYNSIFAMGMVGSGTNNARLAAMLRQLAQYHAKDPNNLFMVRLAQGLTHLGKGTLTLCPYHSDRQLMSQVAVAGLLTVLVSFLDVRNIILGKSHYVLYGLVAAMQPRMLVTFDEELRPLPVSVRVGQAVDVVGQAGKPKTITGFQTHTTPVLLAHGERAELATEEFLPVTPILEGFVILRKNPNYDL
Chain of proteins of HEK293T cells transiently overexpressing caspase-6 (Homo sapiens, UniProt P11021) (P11021 19-654): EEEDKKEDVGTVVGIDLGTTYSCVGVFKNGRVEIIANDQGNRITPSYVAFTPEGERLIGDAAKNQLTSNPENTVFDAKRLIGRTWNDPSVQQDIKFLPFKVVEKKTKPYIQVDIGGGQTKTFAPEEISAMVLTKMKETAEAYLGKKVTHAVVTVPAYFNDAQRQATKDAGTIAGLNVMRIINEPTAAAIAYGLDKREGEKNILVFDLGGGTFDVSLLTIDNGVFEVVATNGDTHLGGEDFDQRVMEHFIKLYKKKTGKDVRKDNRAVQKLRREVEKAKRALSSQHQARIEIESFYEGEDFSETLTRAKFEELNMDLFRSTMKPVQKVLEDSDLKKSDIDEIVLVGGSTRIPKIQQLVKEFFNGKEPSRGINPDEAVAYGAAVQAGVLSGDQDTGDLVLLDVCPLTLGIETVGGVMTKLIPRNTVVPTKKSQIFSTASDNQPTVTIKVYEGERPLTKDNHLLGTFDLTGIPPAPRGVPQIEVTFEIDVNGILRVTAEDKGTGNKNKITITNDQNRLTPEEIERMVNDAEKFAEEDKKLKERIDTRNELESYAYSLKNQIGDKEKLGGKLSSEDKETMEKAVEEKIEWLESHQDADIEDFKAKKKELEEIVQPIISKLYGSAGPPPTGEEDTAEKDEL
Chain of proteins of HEK293T cells transiently overexpressing caspase-6 (Homo sapiens, UniProt O75533) (O75533 whole entry): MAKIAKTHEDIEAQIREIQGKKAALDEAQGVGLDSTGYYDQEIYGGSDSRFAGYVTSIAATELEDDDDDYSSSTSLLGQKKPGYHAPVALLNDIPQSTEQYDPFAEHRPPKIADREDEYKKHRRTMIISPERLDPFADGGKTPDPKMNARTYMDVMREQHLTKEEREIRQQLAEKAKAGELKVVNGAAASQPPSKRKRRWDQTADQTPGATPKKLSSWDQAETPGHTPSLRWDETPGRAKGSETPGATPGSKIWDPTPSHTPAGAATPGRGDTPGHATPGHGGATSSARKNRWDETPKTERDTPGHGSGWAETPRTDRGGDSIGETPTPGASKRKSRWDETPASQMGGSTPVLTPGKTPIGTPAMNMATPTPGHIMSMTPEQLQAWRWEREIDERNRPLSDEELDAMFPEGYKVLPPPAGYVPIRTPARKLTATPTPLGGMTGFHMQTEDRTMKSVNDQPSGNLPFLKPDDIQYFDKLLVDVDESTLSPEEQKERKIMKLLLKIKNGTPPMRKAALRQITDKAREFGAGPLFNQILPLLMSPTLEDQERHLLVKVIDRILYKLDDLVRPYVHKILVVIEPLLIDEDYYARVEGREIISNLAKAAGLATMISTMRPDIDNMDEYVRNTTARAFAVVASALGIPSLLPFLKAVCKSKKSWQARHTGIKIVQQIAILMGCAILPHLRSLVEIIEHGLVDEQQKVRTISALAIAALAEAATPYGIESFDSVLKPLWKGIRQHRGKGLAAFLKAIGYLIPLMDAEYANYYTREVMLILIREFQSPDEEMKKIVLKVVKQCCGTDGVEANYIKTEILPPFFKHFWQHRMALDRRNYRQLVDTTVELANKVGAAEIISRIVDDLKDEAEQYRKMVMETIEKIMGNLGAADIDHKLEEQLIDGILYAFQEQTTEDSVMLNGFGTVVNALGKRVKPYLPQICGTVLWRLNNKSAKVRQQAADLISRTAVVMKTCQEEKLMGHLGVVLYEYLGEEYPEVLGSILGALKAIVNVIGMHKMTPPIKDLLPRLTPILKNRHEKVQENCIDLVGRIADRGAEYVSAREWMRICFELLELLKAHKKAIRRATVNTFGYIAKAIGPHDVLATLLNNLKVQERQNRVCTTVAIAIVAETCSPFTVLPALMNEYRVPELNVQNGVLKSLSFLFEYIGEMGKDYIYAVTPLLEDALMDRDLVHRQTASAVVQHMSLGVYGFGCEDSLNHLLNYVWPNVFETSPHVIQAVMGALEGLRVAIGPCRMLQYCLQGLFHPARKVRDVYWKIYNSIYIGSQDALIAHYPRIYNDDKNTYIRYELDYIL
Chain of proteins of HEK293T cells transiently overexpressing caspase-6 (Homo sapiens, UniProt P00558) (P00558 whole entry): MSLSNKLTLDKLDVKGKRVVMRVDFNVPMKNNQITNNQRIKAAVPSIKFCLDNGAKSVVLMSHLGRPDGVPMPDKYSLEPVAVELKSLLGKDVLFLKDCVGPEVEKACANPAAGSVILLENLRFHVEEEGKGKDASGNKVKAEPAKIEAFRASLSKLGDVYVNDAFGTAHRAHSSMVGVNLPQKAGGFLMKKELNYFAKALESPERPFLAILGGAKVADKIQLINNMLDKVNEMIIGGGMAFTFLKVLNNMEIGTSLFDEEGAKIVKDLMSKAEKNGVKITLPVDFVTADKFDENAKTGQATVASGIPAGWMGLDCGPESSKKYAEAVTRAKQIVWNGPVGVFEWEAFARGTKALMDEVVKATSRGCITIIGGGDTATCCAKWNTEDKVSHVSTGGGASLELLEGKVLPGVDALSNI
Chain of proteins of HEK293T cells transiently overexpressing caspase-6 (Homo sapiens, UniProt Q9NVX2) (Q9NVX2 whole entry): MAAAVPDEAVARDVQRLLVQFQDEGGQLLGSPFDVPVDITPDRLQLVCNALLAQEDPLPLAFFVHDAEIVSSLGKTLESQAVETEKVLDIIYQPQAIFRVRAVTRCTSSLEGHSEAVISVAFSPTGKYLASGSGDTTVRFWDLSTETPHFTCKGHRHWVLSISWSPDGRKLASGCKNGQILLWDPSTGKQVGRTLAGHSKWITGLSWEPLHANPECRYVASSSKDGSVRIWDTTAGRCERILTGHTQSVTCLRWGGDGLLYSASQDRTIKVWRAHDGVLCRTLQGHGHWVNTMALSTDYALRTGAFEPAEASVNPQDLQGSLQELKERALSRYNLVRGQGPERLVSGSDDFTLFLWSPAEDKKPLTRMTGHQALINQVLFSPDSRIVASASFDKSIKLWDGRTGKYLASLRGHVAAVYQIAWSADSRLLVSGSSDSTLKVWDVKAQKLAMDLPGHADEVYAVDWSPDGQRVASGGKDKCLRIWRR
Chain of proteins of HEK293T cells transiently overexpressing caspase-6 (Homo sapiens, UniProt P51991) (P51991 whole entry): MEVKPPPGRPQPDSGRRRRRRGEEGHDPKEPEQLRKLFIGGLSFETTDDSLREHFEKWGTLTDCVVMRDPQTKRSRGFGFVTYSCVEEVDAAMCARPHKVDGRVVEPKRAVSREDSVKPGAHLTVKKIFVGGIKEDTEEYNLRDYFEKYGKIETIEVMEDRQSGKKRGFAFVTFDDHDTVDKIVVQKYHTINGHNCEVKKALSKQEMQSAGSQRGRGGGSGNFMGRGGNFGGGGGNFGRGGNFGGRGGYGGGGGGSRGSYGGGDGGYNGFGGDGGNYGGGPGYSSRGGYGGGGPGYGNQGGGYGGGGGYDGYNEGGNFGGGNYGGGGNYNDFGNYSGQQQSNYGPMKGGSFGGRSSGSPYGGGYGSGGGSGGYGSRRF
Chain of proteins of HEK293T cells transiently overexpressing caspase-6 (Homo sapiens, UniProt P84090) (P84090 whole entry): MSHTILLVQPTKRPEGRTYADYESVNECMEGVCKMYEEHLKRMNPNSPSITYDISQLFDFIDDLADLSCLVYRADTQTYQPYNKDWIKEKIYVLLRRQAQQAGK
Chain of proteins of HEK293T cells transiently overexpressing caspase-6 (Homo sapiens, UniProt P28838) (P28838 whole entry): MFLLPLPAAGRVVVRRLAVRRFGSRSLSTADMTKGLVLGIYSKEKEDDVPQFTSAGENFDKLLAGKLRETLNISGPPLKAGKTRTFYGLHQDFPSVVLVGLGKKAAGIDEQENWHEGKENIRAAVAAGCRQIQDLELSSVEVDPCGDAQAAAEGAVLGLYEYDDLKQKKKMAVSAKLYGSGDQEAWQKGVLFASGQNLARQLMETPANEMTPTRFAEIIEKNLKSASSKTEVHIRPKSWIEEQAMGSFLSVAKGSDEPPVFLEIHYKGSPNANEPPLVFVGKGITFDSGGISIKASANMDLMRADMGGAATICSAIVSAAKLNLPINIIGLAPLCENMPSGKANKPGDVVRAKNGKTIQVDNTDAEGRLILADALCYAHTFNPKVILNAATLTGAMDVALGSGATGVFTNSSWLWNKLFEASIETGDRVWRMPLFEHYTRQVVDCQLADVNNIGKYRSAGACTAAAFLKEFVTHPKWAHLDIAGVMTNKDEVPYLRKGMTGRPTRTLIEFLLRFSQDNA
Chain of proteins of HEK293T cells transiently overexpressing caspase-6 (Homo sapiens, UniProt O14880) (O14880 whole entry): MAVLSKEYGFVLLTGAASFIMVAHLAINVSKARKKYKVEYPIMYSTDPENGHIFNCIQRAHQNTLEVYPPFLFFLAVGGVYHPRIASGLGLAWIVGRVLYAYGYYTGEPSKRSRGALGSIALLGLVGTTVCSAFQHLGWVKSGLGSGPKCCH

C#CCOc1ccc([C@@H]2C[C@@H](C(=O)Nc3ccc(OC(F)(F)F)cc3)CN(S(=O)(=O)C=C)C2)cc1 (relative stereo) [13-t]
enrich.exp.med [1]: 1.143 | enrich.exp.med [2]: 0.3273 | enrich.exp.med [3]: -1.112 | enrich.exp.med [4]: 0.1871 | enrich.exp.med [5]: 0.4718 | enrich.exp.med [6]: 0.3736 | enrich.exp.med [7]: -0.2936 | enrich.exp.med ([8]; exp_ref Probe, analysis C6): 0.9475 | enrich.exp.med.lin [8]: 1.929 | enrich.exp.med.log2 [8]: 0.9475 | enrich.exp.med [9]: -7.844 | enrich.exp.med [10]: 0.5687 | enrich.exp.med [11]: 0.6337 | enrich.exp.med ([12]; Probe, protein PRDX3 P30048): -1.058 | enrich.exp.med.lin ([12]; protein PRDX3 (P30048)): 0.4804 | enrich.exp.med.log2 ([12]; protein PRDX3 (P30048)): -1.058 | enrich.exp.med [13]: 0.1581 | enrich.exp.med [14]: 0.2112 | enrich.exp.med ([15]; Probe, protein RPL15 P61313): -0.9576 | enrich.exp.med.lin ([15]; protein RPL15 (P61313)): 0.5149 | enrich.exp.med.log2 ([15]; protein RPL15 (P61313)): -0.9576 | enrich.exp.med [16]: -0.8193 | enrich.exp.med ([17]; Probe, protein ACACA Q13085): -2.123 | enrich.exp.med.lin ([17]; protein ACACA (Q13085)): 0.2296 | enrich.exp.med.log2 ([17]; protein ACACA (Q13085)): -2.123 | enrich.exp.med ([18]; exp_ref Probe, analysis C6): 1.027 | enrich.exp.med.lin [18]: 2.037 | enrich.exp.med.log2 [18]: 1.027 | enrich.exp.med [19]: 0.9779 | enrich.exp.med [20]: 1.571 | enrich.exp.med [21]: -0.1105 | enrich.exp.med [22]: -1.769 | enrich.exp.med [23]: -0.5155
